Our source for the Ki values is patent US5725838A, “Radiolabeled D4 receptor ligands” (Resolution Pharmaceuticals, Inc., priority 1996, dated 1998).

SMILES strings stand for the structures.

The target in assay [1] is T1, human D4 receptor (D4.2 sub-type) (Homo sapiens, UniProt P21917, DEL265-296).
T1 construct: expressed in transfected cells; host or cells: HEK 298 (so in the source); probably HEK 293), stably transfected, membrane preparation
T1 sequence (P21917 with tags, fused parts or gaps DEL265-296): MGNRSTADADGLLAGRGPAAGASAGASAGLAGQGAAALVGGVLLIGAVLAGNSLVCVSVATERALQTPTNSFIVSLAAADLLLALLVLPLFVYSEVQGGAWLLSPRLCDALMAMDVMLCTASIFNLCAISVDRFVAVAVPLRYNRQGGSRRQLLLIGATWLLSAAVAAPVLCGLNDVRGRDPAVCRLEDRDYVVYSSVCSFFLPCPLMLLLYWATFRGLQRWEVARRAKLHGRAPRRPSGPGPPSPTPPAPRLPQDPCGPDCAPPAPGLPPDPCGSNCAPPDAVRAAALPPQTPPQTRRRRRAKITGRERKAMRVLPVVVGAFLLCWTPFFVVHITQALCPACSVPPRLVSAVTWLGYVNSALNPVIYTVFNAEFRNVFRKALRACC
Kind of assay: D4 receptor binding, 3H-spiperone displacement. The conditions noted are these: membranes of cells stably transfected with human D4.2; 0.25 nM 3H-spiperone; Cheng-Prusoff. The protocol:
The potency of the test compound to reduce ^3 H-spiperone binding directly correlated to its binding affinity for the receptor.
Individual filter disks were put in scintillation vials (Biovials, Bechman).
Ki was calculated by the Cheng and Prustoff transformation: […]
where [L] is the concentration of ^3 H-spiperone used in the assay and KD is the dissociation constant of ^3 H-spiperone determined independently under the same binding conditions.

In assay [2] the target is T2, human D2 receptor (short isoform) (Homo sapiens, UniProt P14416).
T2 construct: expressed in transfected cells; host or cells: GH4 C1 (rat pituitary) cells, stably transfected, membrane preparation
Kind of assay: D2 receptor binding, 3H-spiperone displacement. The conditions noted are these: membranes of GH4 C1 (rat pituitary) cells stably transfected with human D2 short isoform; 0.25 nM 3H-spiperone; Cheng-Prusoff. The protocol:
D2 and D4 receptor-binding affinities of the compounds of Example 3 were evaluated as described in WO95/17400 (incorporated herein by reference) for their ability to reduce binding of ^3 H-spiperone as compared to the reference compound clozapine. The potency of the test compound to reduce ^3 H-spiperone binding directly correlated to its binding affinity for the receptor.
Briefly, the D4 receptor was utilized in the form of membrane preparations obtained from […] cells stably transfected with human D4 receptor (D4.2 sub-type). […] Ready Protein Plus liquid scintillant (5 ml, Beckman) was added and the vials counted by liquid scintillation spectrophotometry (Beckman LSC 6500) after equilibrating for three hours at room temperature to determine total binding (Br).
Non-specific binding for D4 was assayed by incubating membrane homogenate, ^3 H-spiperone and fresh dopamine. Filtrate was counted using the same procedure as in the total binding assay described above to give the non-specific binding value (NSB). Non-specific binding for D2 was similarly assessed, with the exception that (-)-sulpiride was used in place of dopamine.
To assess displacement, membrane homogenate was incubated with ^3 H-spiperone and test compound dissolved in DMSO. Filtrate was counted using the same procedure as in the total binding assay described above, to give the displacement binding value (BD). […]

T2 sequence (P14416 1-414 isoform P14416-2): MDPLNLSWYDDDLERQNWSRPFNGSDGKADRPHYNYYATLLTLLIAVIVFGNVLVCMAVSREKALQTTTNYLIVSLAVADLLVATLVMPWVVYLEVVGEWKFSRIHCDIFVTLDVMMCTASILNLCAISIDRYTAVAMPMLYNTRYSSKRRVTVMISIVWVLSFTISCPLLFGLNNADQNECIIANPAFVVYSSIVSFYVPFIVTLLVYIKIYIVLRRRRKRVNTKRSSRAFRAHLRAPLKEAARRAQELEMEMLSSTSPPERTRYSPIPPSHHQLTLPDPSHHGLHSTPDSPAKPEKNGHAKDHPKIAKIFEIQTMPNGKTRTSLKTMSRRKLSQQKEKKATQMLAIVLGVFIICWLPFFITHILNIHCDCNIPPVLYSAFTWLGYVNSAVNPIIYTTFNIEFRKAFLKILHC

In the case of `Ic1ccc(N2CCN(Cc3c[nH]c4ncccc34)CC2)cc1` [3-[4-(4-iodophenyl)-piperazin-1-yl]methyl-1H-pyrrolo[2,3-b]pyridine], the Ki (usually a measure of affinity in units of concentration, obtained from inhibition or displacement) was 0.00016 µM in assay [1] and 2.37 µM in assay [2].
